According to ChEMBL document CHEMBL1154311, “Isolation of the protein tyrosine phosphatase 1B inhibitory metabolite from the marine-derived fungus Cosmospora sp. SF-5060” (Bioorg Med Chem Lett, 2009):

Legend:
[1] = target: T1, Tyrosine-protein phosphatase non-receptor type 1 (Homo sapiens, UniProt P18031); assay: Inhibition of PTP1B mediated pNPP hydrolysis
T1 sequence (P18031 whole entry): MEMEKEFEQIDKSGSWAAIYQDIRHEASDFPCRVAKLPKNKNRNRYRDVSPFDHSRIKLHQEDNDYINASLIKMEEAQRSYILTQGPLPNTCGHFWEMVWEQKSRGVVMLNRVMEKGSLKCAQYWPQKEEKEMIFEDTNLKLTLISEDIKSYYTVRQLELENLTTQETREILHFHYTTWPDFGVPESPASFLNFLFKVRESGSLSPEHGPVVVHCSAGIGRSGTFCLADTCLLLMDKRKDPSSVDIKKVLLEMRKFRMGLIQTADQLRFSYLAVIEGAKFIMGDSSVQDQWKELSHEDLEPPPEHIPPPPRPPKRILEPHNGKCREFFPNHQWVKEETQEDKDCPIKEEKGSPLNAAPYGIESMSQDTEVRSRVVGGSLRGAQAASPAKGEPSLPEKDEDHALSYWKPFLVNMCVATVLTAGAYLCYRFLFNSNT

[2] = target: T2, Tyrosine-protein phosphatase non-receptor type 1 (Homo sapiens) (UniProt P18031); assay: Inhibition of PTP1B mediated pNPP hydrolysis at 178 uM
T2 sequence (whole entry): T1 sequence (P18031 whole entry)

[3] = target: T3, Tyrosine-protein phosphatase non-receptor type 11 (Homo sapiens, UniProt Q06124); assay: Inhibition of SHP-2
T3 sequence (Q06124 whole entry): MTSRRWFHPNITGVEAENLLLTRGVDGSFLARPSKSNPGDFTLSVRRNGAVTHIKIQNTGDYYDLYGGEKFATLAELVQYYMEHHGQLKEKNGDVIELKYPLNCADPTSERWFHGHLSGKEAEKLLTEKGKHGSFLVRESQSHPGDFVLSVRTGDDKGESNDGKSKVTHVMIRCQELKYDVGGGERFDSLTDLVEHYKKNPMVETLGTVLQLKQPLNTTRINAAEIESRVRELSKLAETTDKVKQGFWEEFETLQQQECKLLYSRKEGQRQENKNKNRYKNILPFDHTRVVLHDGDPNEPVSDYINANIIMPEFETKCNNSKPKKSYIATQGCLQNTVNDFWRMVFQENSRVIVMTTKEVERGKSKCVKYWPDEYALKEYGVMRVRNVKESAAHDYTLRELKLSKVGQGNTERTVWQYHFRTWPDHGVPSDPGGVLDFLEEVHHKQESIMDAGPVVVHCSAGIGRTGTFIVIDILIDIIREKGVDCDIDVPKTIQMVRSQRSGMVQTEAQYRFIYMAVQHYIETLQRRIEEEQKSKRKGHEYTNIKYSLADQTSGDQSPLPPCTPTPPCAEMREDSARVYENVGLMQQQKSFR

[4] = target: T4, Tyrosine-protein phosphatase non-receptor type 2 (Homo sapiens, UniProt P17706); assay: Inhibition of TCPTP
T4 sequence (P17706 whole entry): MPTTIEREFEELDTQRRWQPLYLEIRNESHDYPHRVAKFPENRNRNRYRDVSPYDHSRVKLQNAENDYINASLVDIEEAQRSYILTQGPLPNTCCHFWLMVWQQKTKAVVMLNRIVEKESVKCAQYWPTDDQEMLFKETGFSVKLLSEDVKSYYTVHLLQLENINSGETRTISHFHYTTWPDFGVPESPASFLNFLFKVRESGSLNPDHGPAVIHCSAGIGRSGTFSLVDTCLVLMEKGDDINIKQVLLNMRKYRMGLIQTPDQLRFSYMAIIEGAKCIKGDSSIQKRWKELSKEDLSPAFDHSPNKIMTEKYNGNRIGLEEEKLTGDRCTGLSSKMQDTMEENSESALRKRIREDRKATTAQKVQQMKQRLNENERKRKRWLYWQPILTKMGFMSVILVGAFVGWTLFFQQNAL

[5] = target: Receptor-type tyrosine-protein phosphatase F (Homo sapiens, UniProt P10586); assay: Inhibition of LAR
[6] = target: T5, Receptor-type tyrosine-protein phosphatase C (Homo sapiens, UniProt P08575); assay: Inhibition of CD45
T5 sequence (P08575 whole entry): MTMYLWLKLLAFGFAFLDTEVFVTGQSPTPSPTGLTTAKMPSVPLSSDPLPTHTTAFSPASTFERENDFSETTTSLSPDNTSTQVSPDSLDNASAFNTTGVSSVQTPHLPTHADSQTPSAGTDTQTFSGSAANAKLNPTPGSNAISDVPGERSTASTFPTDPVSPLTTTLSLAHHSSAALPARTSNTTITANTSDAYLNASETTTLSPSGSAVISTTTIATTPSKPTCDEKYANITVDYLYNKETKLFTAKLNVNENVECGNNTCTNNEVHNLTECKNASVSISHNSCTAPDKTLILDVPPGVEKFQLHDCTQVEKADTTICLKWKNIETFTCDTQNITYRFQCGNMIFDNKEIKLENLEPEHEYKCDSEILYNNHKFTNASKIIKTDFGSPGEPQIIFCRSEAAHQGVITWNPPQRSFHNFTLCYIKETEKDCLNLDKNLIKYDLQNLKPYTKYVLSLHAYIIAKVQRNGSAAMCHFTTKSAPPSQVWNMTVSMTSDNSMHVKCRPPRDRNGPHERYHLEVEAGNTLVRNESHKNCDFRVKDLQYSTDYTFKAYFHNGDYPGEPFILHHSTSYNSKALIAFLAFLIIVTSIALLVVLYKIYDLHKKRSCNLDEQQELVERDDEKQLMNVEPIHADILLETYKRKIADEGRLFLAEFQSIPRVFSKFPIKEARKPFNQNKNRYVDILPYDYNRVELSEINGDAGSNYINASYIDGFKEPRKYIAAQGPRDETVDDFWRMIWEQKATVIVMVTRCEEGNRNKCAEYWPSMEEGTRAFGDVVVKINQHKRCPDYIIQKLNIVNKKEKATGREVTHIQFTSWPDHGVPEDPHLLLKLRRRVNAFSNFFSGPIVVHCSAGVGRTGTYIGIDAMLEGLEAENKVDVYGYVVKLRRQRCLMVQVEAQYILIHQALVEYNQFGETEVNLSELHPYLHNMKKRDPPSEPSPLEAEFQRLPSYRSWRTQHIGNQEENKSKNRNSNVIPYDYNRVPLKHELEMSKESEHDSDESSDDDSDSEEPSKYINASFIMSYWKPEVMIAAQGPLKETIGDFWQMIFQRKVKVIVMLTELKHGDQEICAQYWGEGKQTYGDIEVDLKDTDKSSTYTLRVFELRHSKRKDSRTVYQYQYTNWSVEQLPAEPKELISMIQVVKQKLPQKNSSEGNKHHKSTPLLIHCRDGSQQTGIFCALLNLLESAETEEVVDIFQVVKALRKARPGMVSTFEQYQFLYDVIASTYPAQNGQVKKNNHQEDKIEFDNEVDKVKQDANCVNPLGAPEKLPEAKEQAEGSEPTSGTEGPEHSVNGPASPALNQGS

[7] = target: T1, Tyrosine-protein phosphatase non-receptor type 1; assay: Competitive inhibition of PTP1B mediated pNPP hydrolysis by Lineweaver-Burke plot analysis

Receptor-type tyrosine-protein phosphatase F, sequence (P10586 whole entry): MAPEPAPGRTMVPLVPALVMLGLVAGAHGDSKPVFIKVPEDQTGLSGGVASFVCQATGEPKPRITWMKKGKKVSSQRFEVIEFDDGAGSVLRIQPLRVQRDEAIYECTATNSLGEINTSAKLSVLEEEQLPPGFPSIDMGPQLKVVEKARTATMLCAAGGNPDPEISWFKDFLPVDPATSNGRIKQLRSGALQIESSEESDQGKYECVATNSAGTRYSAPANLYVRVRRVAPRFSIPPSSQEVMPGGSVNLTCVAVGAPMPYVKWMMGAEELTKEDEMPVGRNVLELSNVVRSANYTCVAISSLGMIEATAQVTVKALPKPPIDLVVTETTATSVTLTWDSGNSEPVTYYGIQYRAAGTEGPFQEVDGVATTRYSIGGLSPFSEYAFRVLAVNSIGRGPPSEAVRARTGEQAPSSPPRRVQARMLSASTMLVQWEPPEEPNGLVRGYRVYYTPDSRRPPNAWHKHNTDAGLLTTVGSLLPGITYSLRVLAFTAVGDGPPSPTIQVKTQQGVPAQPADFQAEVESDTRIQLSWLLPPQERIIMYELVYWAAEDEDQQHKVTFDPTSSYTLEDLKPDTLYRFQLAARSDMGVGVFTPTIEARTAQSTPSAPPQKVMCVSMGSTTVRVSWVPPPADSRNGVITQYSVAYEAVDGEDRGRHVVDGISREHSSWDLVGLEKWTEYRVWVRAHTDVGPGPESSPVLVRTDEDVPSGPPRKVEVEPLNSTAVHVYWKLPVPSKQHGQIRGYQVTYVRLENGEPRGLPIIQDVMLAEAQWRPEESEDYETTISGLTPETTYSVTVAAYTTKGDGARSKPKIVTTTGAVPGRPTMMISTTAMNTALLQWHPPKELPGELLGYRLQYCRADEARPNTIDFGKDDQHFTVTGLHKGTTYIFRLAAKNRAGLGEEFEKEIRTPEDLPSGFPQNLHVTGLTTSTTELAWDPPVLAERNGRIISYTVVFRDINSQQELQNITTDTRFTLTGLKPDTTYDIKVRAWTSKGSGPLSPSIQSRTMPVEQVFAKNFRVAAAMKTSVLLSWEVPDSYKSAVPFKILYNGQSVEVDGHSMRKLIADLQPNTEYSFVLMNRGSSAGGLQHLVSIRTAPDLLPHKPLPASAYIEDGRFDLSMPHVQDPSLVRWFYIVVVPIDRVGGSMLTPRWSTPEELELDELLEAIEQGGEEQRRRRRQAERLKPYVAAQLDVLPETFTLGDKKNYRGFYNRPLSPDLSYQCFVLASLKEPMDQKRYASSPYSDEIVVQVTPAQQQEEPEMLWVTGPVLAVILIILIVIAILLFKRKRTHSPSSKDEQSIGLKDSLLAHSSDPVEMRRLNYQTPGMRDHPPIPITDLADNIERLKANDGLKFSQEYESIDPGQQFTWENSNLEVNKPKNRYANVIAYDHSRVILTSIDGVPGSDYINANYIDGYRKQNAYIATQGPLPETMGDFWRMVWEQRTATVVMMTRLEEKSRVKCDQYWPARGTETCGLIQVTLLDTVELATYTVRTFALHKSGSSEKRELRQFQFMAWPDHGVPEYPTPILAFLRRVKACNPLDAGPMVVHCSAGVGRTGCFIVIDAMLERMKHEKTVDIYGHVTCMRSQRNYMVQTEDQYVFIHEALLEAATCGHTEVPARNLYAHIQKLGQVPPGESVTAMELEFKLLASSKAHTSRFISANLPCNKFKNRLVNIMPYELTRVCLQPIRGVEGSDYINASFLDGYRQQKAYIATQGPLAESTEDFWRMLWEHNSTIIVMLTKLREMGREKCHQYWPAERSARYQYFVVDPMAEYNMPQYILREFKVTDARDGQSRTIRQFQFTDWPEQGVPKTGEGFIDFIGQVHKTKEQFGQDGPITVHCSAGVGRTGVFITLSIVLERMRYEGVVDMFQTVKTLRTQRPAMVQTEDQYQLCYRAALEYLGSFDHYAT

| SMILES | IC50 ([1]; read-out: IC50) | IC50 [1] | further results |
| --- | --- | --- | --- |
| CCCCCCCCCCCCCCCc1cc(O[C@@H]2O[C@H](CO)[C@@H](O)[C@H](O)[C@H]2O)cc(O)c1C(=O)Oc1cc(C)c(C(=O)OC)c(O)c1 | 17000 nM | – | – |
| CCCCCCCCCCCCCCCc1cc(O)cc(O)c1C(=O)Oc1cc(C)c(C(=O)O)c(O)c1 | 220 nM | – | – |
| CCCCCCCCCCCCCCCc1cc(O[C@@H]2O[C@H](CO)[C@@H](O)[C@H](O)[C@H]2O)cc(O)c1C(=O)O | 590 nM | Dose-dependent effect | – |
| Cc1cc(O)cc(O)c1C(=O)O | – | – | inhibition [2]: 45% |
| CCCCCCCCCCCCCCCc1cc(O[C@@H]2O[C@H](CO)[C@@H](O)[C@H](O)[C@H]2O)cc(O)c1C(=O)Oc1cc(C)c(C(=O)O)c(O)c1 [AQUASTATIN A] | 190 nM | Dose-dependent effect | IC50 [3]: > 44000 nM; IC50 [4]: 510 nM; IC50 [5]: > 44000 nM; IC50 [6]: > 44000 nM; Ki [7]: 100 nM |
